Reference: ChEMBL document CHEMBL1201862, “PubChem BioAssay data set” (2004)
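Tested at 5 concentrations; 48 h exposure; 96-well plates; endpoints linearly interpolated, else capped at highest concentration. GI50 is the concentration that inhibits growth by half.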 The source made the active and inactive calls. Cut-off read from the data, not from the text of the source: active = GI50 up to about 1.1 µM and inactive = higher.

Experiments:
Assay in all cases: growth of human tumour cells (NCI), 48 h
HCC 2998 = system: HCC 2998
RPMI-8226 = system: RPMI-8226
DU-145 = system: DU-145
BT-549 = system: BT-549
UO-31 = system: UO-31
HOP-62 = system: HOP-62
A549 = system: A549
SK-MEL-2 = system: SK-MEL-2
NCI-H226 = system: NCI-H226
HT-29 = system: HT-29
MDA-MB-231 = system: MDA-MB-231
OVCAR-3 = system: OVCAR-3
M14 = system: M14
EKVX = system: EKVX
NCI-H522 = system: NCI-H522
SK-MEL-5 = system: SK-MEL-5
UACC-62 = system: UACC-62
T47D = system: T47D
SN12C = system: SN12C
SR = system: SR
Malme-3M = system: Malme-3M
MDA-N = system: MDA-N
MOLT-4 = system: MOLT-4
OVCAR-8 = system: OVCAR-8
SF-268 = system: SF-268
U-251 = system: U-251
NCI-H23 = system: NCI-H23
TK-10 = system: TK-10
SF-295 = system: SF-295
UACC-257 = system: UACC-257
KM12 = system: KM12
MCF7 = system: MCF7
COLO 205 = system: COLO 205
MDA-MB-435 = system: MDA-MB-435
PC-3 = system: PC-3
SF-539 = system: SF-539
SW-620 = system: SW-620
HCT-116 = system: HCT-116
A498 = system: A498
K562 = system: K562
CCRF-CEM = system: CCRF-CEM
HL-60 = system: HL-60
LOX IMVI = system: LOX IMVI
IGROV-1 = system: IGROV-1
786-0 = system: 786-0
HOP-92 = system: HOP-92
SK-OV-3 = system: SK-OV-3
OVCAR-5 = system: OVCAR-5
CAKI-1 = system: CAKI-1
HCT-15 = system: HCT-15
NCI/ADR-RES = system: NCI/ADR-RES
SNB-75 = system: SNB-75
RXF 393 = system: RXF 393
OVCAR-4 = system: OVCAR-4
ACHN = system: ACHN
SNB-19 = system: SNB-19
NCI-H460 = system: NCI-H460
SK-MEL-28 = system: SK-MEL-28
Hs-578T = system: Hs-578T

Measured: GI50

CC(C)Oc1ccc2c(c1)OCC1Cc3ccccc3OC21 (centres undefined)
18.3 µM: HCT-15
inactive: HCC 2998 96.8 µM | RPMI-8226 52.8 µM | DU-145 > 100 µM | BT-549 58.2 µM | UO-31 > 100 µM | HOP-62 > 100 µM | A549 > 100 µM | SK-MEL-2 > 100 µM | NCI-H226 > 100 µM | HT-29 41.4 µM | MDA-MB-231 > 100 µM | OVCAR-3 > 100 µM | M14 > 100 µM | EKVX 75.9 µM | NCI-H522 79.1 µM | SK-MEL-5 23 µM | UACC-62 > 100 µM | T47D 55.2 µM | SN12C > 100 µM | SR > 100 µM | Malme-3M > 100 µM | MDA-N 49.2 µM | MOLT-4 36.2 µM | OVCAR-8 > 100 µM | SF-268 > 100 µM | U-251 > 100 µM | NCI-H23 89.9 µM | TK-10 51.3 µM | SF-295 63.2 µM | UACC-257 33.7 µM | KM12 > 100 µM | MCF7 46.8 µM | COLO 205 > 10 µM | MDA-MB-435 63.2 µM | PC-3 > 100 µM | SF-539 > 100 µM | SW-620 > 100 µM | HCT-116 > 100 µM | A498 > 100 µM | K562 88.1 µM | CCRF-CEM > 100 µM | HL-60 > 100 µM | LOX IMVI > 100 µM | IGROV-1 > 100 µM | 786-0 > 100 µM | HOP-92 > 100 µM | SK-OV-3 > 100 µM | OVCAR-5 > 100 µM | CAKI-1 > 100 µM | NCI/ADR-RES 71.9 µM

OC1c2[nH]c3ccccc3c2CCN2CCCCC12 (centres undefined)
inactive: HCC 2998 75.3 µM | RPMI-8226 > 100 µM | DU-145 > 100 µM | BT-549 > 100 µM | HOP-62 > 100 µM | A549 > 100 µM | SK-MEL-2 > 100 µM | SNB-75 59.4 µM | NCI-H226 > 100 µM | HT-29 > 100 µM | RXF 393 > 100 µM | MDA-MB-231 > 100 µM | OVCAR-3 > 100 µM | M14 > 100 µM | EKVX > 100 µM | NCI-H522 > 100 µM | UACC-62 > 100 µM | T47D > 100 µM | OVCAR-4 > 100 µM | SN12C > 100 µM | SR > 100 µM | Malme-3M > 100 µM | MDA-N > 100 µM | MOLT-4 > 100 µM | OVCAR-8 > 100 µM | SF-268 > 100 µM | U-251 > 100 µM | NCI-H23 > 100 µM | TK-10 > 100 µM | SF-295 > 100 µM | UACC-257 > 100 µM | KM12 > 100 µM | ACHN > 100 µM | MCF7 > 100 µM | COLO 205 > 100 µM | SNB-19 > 100 µM | MDA-MB-435 > 100 µM | PC-3 > 100 µM | SF-539 > 100 µM | SW-620 > 100 µM | HCT-116 > 100 µM | A498 > 100 µM | K562 > 100 µM | CCRF-CEM > 100 µM | HL-60 > 100 µM | LOX IMVI > 100 µM | IGROV-1 > 100 µM | 786-0 > 100 µM | HOP-92 51.1 µM | SK-OV-3 > 100 µM | OVCAR-5 > 100 µM | NCI-H460 > 100 µM | SK-MEL-28 > 100 µM | CAKI-1 > 100 µM | NCI/ADR-RES > 100 µM
> 100 µM: HCT-15

Cc1cc(OCC(=O)N/N=C/C(Br)=C/c2ccccc2)nc(SCC(=O)N/N=C/C(Br)=C/c2ccccc2)n1
> 100 µM: HCT-15
inactive: HCC 2998 23 µM | RPMI-8226 68.5 µM | DU-145 58.3 µM | BT-549 > 100 µM | UO-31 > 100 µM | HOP-62 51.5 µM | Hs-578T 39.9 µM | HT-29 > 100 µM | RXF 393 49.1 µM | OVCAR-3 > 100 µM | M14 > 100 µM | EKVX 80 µM | NCI-H522 26.6 µM | SK-MEL-5 > 100 µM | UACC-62 > 100 µM | OVCAR-4 42 µM | SN12C > 100 µM | SR > 100 µM | MDA-N 49.4 µM | SF-268 48.2 µM | U-251 > 100 µM | NCI-H23 > 100 µM | SF-295 > 100 µM | UACC-257 > 100 µM | KM12 39.9 µM | ACHN > 100 µM | MCF7 75.7 µM | COLO 205 39.1 µM | SNB-19 > 100 µM | MDA-MB-435 > 100 µM | PC-3 54.1 µM | SW-620 > 100 µM | HCT-116 > 100 µM | A498 > 100 µM | K562 > 100 µM | CCRF-CEM > 100 µM | HL-60 > 100 µM | LOX IMVI > 100 µM | IGROV-1 52.2 µM | 786-0 34.8 µM | HOP-92 24.9 µM | OVCAR-5 > 100 µM | NCI-H460 28.2 µM | SK-MEL-28 > 100 µM | CAKI-1 > 100 µM | NCI/ADR-RES 53.6 µM
